The source of these data is US9522888B2, “Substituted bicyclic compounds” (BRISTOL-MYERS SQUIBB COMPANY, priority 2014, dated 2016).

In assay [1] the target is human S1P1 (Homo sapiens (Human), UniProt P21453). The assay can be described thus: S1P1 binding assay (33P-S1P radioligand competition, CHO cell membranes). Particulars: phosphate examples; read-out: S1P1 Binding. As to the method: Membranes were prepared from CHO cells expressing human S1P1. Cells pellets (1×10^9 cells/pellet) were suspended in buffer containing 20 mM HEPES (4-(2-hydroxyethyl)-1-piperazineethanesulfonic acid), pH 7.5, 50 mM NaCl, 2 mM EDTA (Ethylenediaminetetraacetic acid) and Protease Inhibitor cocktail (Roche), and disrupted on ice using the Polytron homogenizer. The homogenate was centrifuged at 20,000 rpm (48,000 g) and the supernatant was discarded. The membrane pellets were resuspended in buffer containing 50 mM HEPES, pH 7.5, 100 mM NaCl, 1 mM MgCl2, 2 mM EDTA and stored in aliquots at −80° C. after protein concentration determination.

Assay [2] addresses S1P1 (membranes prepared from S1P1/CHO cells) (Homo sapiens (Human), UniProt P21453). The assay can be described thus: Receptor [35S] GTPγS binding assay (S1P1 GTPγS). Type of assay: biochemical. Particulars: phosphate examples; read-out: S1P1 GTPγS. The method, then:
(§1) Receptor [^35S] GTPγS Binding Assays: (S1P1 GTPγS/S1P3 GTPγS)
Compounds were loaded in a 384 Falcon v-bottom plate (0.5 μl/well in a 11 point, 3-fold dilution). Membranes prepared from S1P1/CHO cells or EDG3-Gal5-bla HEK293T cells (EDG3 equivalent S1P3) were added to the compound plate (40 μl/well, final protein 3 μg/well) with MULTIDROP®. [^35S] GTP (1250 Ci/mmol, Perkin Elmer) was diluted in assay buffer: 20 mM HEPES, pH7.5, 10 mM MgCl2, 150 mM NaCl, 1 mM EGTA (ethylene glycol tetraacetic acid), 1 mM DTT (Dithiothreitol), 10 μM GDP, 0.1% fatty acid free BSA, and 10 μg/ml Saponin to 0.4 nM. 40 μl of the [^35S] GTP solution was added to the compound plate with a final concentration of 0.2 nM. The reaction was kept at room temperature for 45 min. At the end of incubation, all the mixtures in the compound plate were transferred to Millipore 384-well FB filter plates via the VELOCITY11® Vprep liquid handler. The filter plate was washed with water 4 times by using the manifold Embla plate washer and dried at 60° C. for 45 min. MicroScint 20 scintillation fluid (30 μl) was added to each well for counting on the Packard TOPCOUNT®. […]

Assay [3] deals with S1P3 (membranes prepared from EDG3-Gal5-bla HEK293T cells) (Homo sapiens (Human), UniProt Q99500). The assay can be described thus: Receptor [35S] GTPγS binding assay (S1P3 GTPγS). Particulars: phosphate examples; read-out: S1P3 GTPγS. Type of assay: biochemical. The method, then:
as §1
Compounds were loaded in a 384 Falcon v-bottom plate (0.5 μl/well in a 11 point, 3-fold dilution). Membranes prepared from S1P1/CHO cells or EDG3-Gal5-bla HEK293T cells (EDG3 equivalent S1P3) were added to the compound plate (40 μl/well, final protein 3 μg/well) with MULTIDROP®. [^35S] GTP (1250 Ci/mmol, Perkin Elmer) was diluted in assay buffer: 20 mM HEPES, pH7.5, 10 mM MgCl2, 150 mM NaCl, 1 mM EGTA (ethylene glycol tetraacetic acid), 1 mM DTT (Dithiothreitol), 10 μM GDP, 0.1% fatty acid free BSA, and 10 μg/ml Saponin to 0.4 nM. 40 μl of the [^35S] GTP solution was added to the compound plate with a final concentration of 0.2 nM. The reaction was kept at room temperature for 45 min. At the end of incubation, all the mixtures in the compound plate were transferred to Millipore 384-well FB filter plates via the VELOCITY11® Vprep liquid handler. The filter plate was washed with water 4 times by using the manifold Embla plate washer and dried at 60° C. for 45 min. MicroScint 20 scintillation fluid (30 μl) was added to each well for counting on the Packard TOPCOUNT®.
A smaller value for GTPγS S1P1 EC50 value indicated greater activity for the compound in the GTPγS S1P1 binding assay. A larger value for the GTPγS S1P3 EC50 value indicated less activity in the GTPγS S1P3 binding assay. […] Thus the compounds of the present invention may be used in treating, preventing, or curing various S1P1 receptor-related conditions while reducing or minimizing the side effects due to S1P3 activity. The selectivity of the compounds of the present invention indicate their potential use in treating, preventing, or curing autoimmune and inflammatory diseases such as multiple sclerosis, rheumatoid arthritis, inflammatory bowel disease, lupus, psoriasis, or vascular diseases, while reducing or minimizing possible side effects due to S1P3 activity. Other potential uses of the compounds of the present invention include minimizing or reducing rejection of transplanted organs, while reducing or minimizing side effects due to S1P3 activity.
(In general: GTPγS is a poorly hydrolysed GTP analogue; its binding reports G protein activation.)

The target of assay [4] is hS1P1/CHO cells (Homo sapiens (Human), UniProt P21453). The assay is described as follows: hS1P1 ERK phosphorylation (S1P1 pERK). Type of assay: cell-based. Conditions: phosphate examples. As to the method:
hS1P1 ERK Phosphorylation (S1P1 pERK)
hS1P1/CHO cells were plated into BD Amine 384-well plates the day before the assay. On the day of the assay, growth medium was removed and replaced with serum-free medium (Ham's F-12 Invitrogen) and incubated for 2 hours. Test compounds pre-diluted in HBSS (Gibco)/20 mM HEPES (Gibco) were transferred to the cell plates and incubated for 7 minutes at 37° C. Cells were lysed in lysis buffer (Perkin Elmer) and phospho-ERK was measured using the SureFire pERK kit (Perkin Elmer) as described by the manufacturer. Data was plotted as percentage activation of the test compound relative to the efficacy of 10 μM S1P.

Each structure is given as a SMILES string. Bounds are passed on as bounds.

human S1P1, sequence (P21453 whole entry): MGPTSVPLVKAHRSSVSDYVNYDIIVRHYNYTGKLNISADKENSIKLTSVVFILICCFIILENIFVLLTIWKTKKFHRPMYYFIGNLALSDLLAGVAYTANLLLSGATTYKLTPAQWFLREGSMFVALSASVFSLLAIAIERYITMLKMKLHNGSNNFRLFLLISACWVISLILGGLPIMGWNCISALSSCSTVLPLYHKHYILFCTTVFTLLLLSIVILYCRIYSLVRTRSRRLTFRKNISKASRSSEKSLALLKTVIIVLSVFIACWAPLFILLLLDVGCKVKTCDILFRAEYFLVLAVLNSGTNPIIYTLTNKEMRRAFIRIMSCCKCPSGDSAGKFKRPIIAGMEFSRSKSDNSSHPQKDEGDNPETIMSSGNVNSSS
S1P1 (membranes prepared from S1P1/CHO cells), sequence (P21453 whole entry): as above
hS1P1/CHO cells, sequence (P21453 whole entry): as above
S1P3 (membranes prepared from EDG3-Gal5-bla HEK293T cells), sequence (Q99500 whole entry): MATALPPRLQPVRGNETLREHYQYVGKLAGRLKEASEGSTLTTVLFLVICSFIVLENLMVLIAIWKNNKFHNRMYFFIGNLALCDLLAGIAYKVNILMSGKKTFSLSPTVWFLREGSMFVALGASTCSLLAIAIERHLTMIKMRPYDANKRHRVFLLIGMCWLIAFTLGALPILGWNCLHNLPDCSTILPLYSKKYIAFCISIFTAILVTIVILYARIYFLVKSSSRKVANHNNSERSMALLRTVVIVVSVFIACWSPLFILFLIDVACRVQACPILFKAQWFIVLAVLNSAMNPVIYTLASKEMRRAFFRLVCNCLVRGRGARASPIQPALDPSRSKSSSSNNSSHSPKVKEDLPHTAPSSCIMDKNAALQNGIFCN

In the case of `CC(C)CSC[C@@H]1CCc2cc([C@H]3CC[C@](N)(COP(=O)(O)O)C3)ccc2C1` [compound 504], the IC50 in assay [1] was below 0.01 µM. Further, the EC50 in assay [2] was 0.01 to 0.1 µM; in assay [3] it was above 0.625 µM; in assay [4], below 0.01 µM.

`C/C=C/CCCC[C@H]1CCc2cc([C@H]3CC[C@](N)(COP(=O)(O)O)C3)ccc2C1` [compound 659]: the IC50 in assay [1] was below 0.01 µM. Also, the EC50 in assay [2] was below 0.01 µM; in assay [3], above 0.625 µM; in assay [4], 0.01 to 0.1 µM.

With `C=CCC/C=C/[C@@H]1CCc2cc([C@H]3CC[C@](N)(COP(=O)(O)O)C3)ccc2C1` [compound 639], the IC50 in assay [1] was in the range of 0.01 to 0.1 µM. In addition, the EC50 in assay [2] was 0.01 to 0.1 µM; in assay [3], above 0.625 µM; in assay [4] it was 0.01 to 0.1 µM.

For `COc1ccc(OC[C@@H]2CCc3cc([C@H]4CC[C@](N)(COP(=O)(O)O)C4)ccc3C2)cc1OC` [compound 491], in assay [1], the IC50 was below 0.01 µM. In addition, the EC50 in assay [2] is below 0.01 µM; in assay [3] it was above 0.625 µM; in assay [4], 0.01 to 0.1 µM.

As to `CCCCCC[C@H]1COc2cc([C@@H]3CC[C@](N)(COP(=O)(O)O)C3)ccc2C1` [compound 425], the IC50 in assay [1] was below 0.01 µM. Further, the EC50 in assay [2] is below 0.01 µM; in assay [3], above 0.625 µM; in assay [4] it was below 0.01 µM.

As to `CC(C)=CCCOC[C@@H]1CCc2cc([C@H]3CC[C@](N)(COP(=O)(O)O)C3)ccc2C1` [compound 461], the IC50 in assay [1] is below 0.01 µM. For the same compound, the EC50 was below 0.01 µM in assay [2], above 0.625 µM in assay [3] and below 0.01 µM in assay [4].

On to `COCCC/C=C/[C@@H]1CCc2cc([C@H]3CC[C@](N)(COP(=O)(O)O)C3)ccc2C1` [compound 640], for which the IC50 in assay [1] is below 0.01 µM. Moreover, the results for the EC50 in assay [2], in assay [3] and in assay [4] were below 0.01 µM, above 0.625 µM and below 0.01 µM, respectively.

For the compound `CC(C)COCC[C@H]1CCc2cc([C@H]3CC[C@](N)(COP(=O)(O)O)C3)ccc2C1` [compound 543], the EC50 in assay [2] is below 0.01 µM; in assay [3], above 0.625 µM; in assay [4], below 0.01 µM.

Turning to `N[C@]1(COP(=O)(O)O)CC[C@H](c2ccc3c(c2)CC[C@@H](CSc2ccncc2)C3)C1` [compound 517], the IC50 in assay [1] was 0.01 to 0.1 µM. Moreover, the EC50 in assay [2] was 0.01 to 0.1 µM; in assay [3], above 0.625 µM; in assay [4], below 0.01 µM.

For `CCCCC=C[C@H]1CCc2cc([C@H]3CC[C@](N)(COP(=O)(O)O)C3)ccc2C1` [compound 648], the IC50 in assay [1] fell in the range of 0.01 to 0.1 µM. Moreover, the EC50 is 0.01 to 0.1 µM in assay [2], above 0.625 µM in assay [3] and 0.01 to 0.1 µM in assay [4].

Regarding `N[C@@]1(COP(=O)(O)O)CCC(c2ccc3c(c2)CN(CCCc2ccccc2)C3=O)C1` (some centres unmarked) [compound 613], in assay [1], the IC50 was in the range of 1 to 10 µM. Further, the EC50 in assay [3] is above 0.625 µM; in assay [4] it was 0.1 to 1 µM.

Turning to `CCCCNC(=O)OC1CCc2cc([C@H]3CC[C@@](N)(COP(=O)(O)O)C3)ccc2C1` (some centres unmarked) [compound 625], the EC50 was 0.1 to 1 µM in assay [2], above 0.625 µM in assay [3] and 0.01 to 0.1 µM in assay [4].

For the compound `N[C@]1(COP(=O)(O)O)CC[C@H](c2ccc3c(c2)CC[C@@H](COCc2ccsc2)C3)C1` [compound 473], the IC50 in assay [1] was below 0.01 µM. In addition, the results for the EC50 in assay [3] and in assay [4] were above 0.625 µM and 0.01 to 0.1 µM, respectively.

Take `CCCC/C=C/C1=Cc2ccc([C@H]3CC[C@](N)(COP(=O)(O)O)C3)cc2CC1` [compound 647]: the values for the EC50 in assay [2], in assay [3] and in assay [4] were 0.1 to 1 µM, above 0.625 µM and 0.01 to 0.1 µM, respectively.

For `CC(C)CN(C)C(=O)c1cccc(OC[C@@H]2CCc3cc([C@H]4CC[C@](N)(COP(=O)(O)O)C4)ccc3C2)c1` [compound 500], the EC50 is below 0.01 µM in assay [2], above 0.625 µM in assay [3] and below 0.01 µM in assay [4].

In the case of `COc1ccc(F)c(OC[C@@H]2CCc3cc([C@H]4CC[C@](N)(COP(=O)(O)O)C4)ccc3C2)c1` [compound 486], the EC50 in assay [2] is below 0.01 µM; in assay [4] it was 0.01 to 0.1 µM.

In the case of `COc1ccc(C[C@@H]2CCc3cc([C@H]4CC[C@](N)(COP(=O)(O)O)C4)ccc3C2)cc1F` [compound 554], the EC50 is 0.01 to 0.1 µM in assay [2], above 0.625 µM in assay [3] and 0.01 to 0.1 µM in assay [4].

Regarding `CCCCC1CCCC2(CCc3cc([C@H]4CC[C@](N)(COP(=O)(O)O)C4)ccc3C2)O1` (some centres unmarked) [compound 630], the IC50 in assay [1] was below 0.01 µM. The EC50 in assay [3] is above 0.625 µM; in assay [4], 0.1 to 1 µM.

As to `CCCCC=C[C@H]1CCc2cc([C@H]3CC[C@](N)(COP(=O)(O)O)C3)ccc2C1` [compound 649], in assay [1], the IC50 is 0.01 to 0.1 µM. Also, the results for the EC50 in assay [2] and in assay [4] were 0.1 to 1 µM and 0.01 to 0.1 µM, respectively.

`Cn1cc(COC[C@@H]2CCc3cc([C@H]4CC[C@](N)(COP(=O)(O)O)C4)ccc3C2)cn1` [compound 471]: in assay [1], the IC50 is 0.1 to 1 µM. The EC50 in assay [3] is above 0.625 µM; in assay [4], 0.01 to 0.1 µM.

Consider `CC(C)COCC[C@@H]1CCc2cc([C@H]3CC[C@](N)(COP(=O)(O)O)C3)ccc2C1` [compound 542], for which the EC50 in assay [2] was below 0.01 µM; in assay [3] it was above 0.625 µM; in assay [4] it was below 0.01 µM.

For the compound `N[C@]1(COP(=O)(O)O)CC[C@H](c2ccc3c(c2)CCC2(CCCCO2)C3)C1` (some centres unmarked) [compound 634], the IC50 in assay [1] is 0.01 to 0.1 µM. Moreover, the results for the EC50 in assay [3] and in assay [4] were above 0.625 µM and 0.01 to 0.1 µM, respectively.

`Cc1cc(COC[C@@H]2CCc3cc([C@H]4CC[C@](N)(COP(=O)(O)O)C4)ccc3C2)sc1C` [compound 488]: the IC50 in assay [1] was below 0.01 µM. The EC50 was 0.01 to 0.1 µM in assay [2] and below 0.01 µM in assay [4].

Regarding `N[C@]1(COP(=O)(O)O)CC[C@H](c2ccc3c(c2)CC[C@H](c2ccncc2)C3)C1` [compound 574], the IC50 in assay [1] lay in the range of 0.1 to 1 µM. For the same compound, the EC50 is above 0.625 µM in assay [3] and 0.01 to 0.1 µM in assay [4].

Turning to `N[C@@]1(COP(=O)(O)O)CC[C@@H](c2ccc3c(c2)CC[C@@H](OCCOc2ccccc2)C3)C1` [compound 583], the results for the EC50 in assay [2], in assay [3] and in assay [4] were below 0.01 µM, above 0.1 µM and below 0.01 µM, respectively.

With `CCCSC[C@H]1CCc2cc([C@H]3CC[C@](N)(COP(=O)(O)O)C3)ccc2C1` [compound 502], the IC50 in assay [1] is below 0.01 µM. The EC50 is 0.01 to 0.1 µM in assay [2] and below 0.01 µM in assay [4].

As to `CCCCN(C)C(=O)OC1CCc2cc([C@H]3CC[C@](N)(COP(=O)(O)O)C3)ccc2C1` (some centres unmarked) [compound 628], the EC50 in assay [2] is below 0.01 µM; in assay [3], above 0.625 µM; in assay [4], below 0.01 µM.
